# Assay results taken from patent publication EP1268487B1, “TRICYCLIC PROTEIN KINASE INHIBITORS” (Wyeth, priority 2000, dated 2001).
# Legend:
# [1] = test system: Human Epidermoid Tumors (A431); assay: In vivo inhibition of the growth of human epidermoid tumors (A431); design: species or system BALB/c nu/nu female mice; details: for %T/C / RTG Day 7 / RTG Day 14 / RTG Day 21: days 1 through 10; for S/T: # of Survivors/# of Treated on Day +21
# Description: BALB/c nu/nu female mice (Charles River, Wilmington, MA) were used in the in vivo standard pharmacological test procedures. Human epidermoid carcinoma cells A-431 (American Type Culture Collection, Rockville, Maryland # CRL-155) were grown in vitro as described above. A unit of 5 X 10^6 cells were injected subcutaneously into mice. When tumors attained a mass of between 100 and 150 mg, the mice were randomized into treatment groups (day zero). Mice were treated orally (PO) once a day on days 1 through 10 post staging with doses of either 40, 20, 10, 3 or 1 mg/kg/dose of the compound to be evaluated in 0.2% Klucel. Control animals received no drug. Tumor mass was determined every 7 days [(length X width^2)/2] for 28 days post staging. Relative tumor growth (Mean tumor mass on day 7, 14, and 21 divided by the mean tumor mass on day zero) is determined for each treatment group. The %T/C (Tumor/Control) is determined by dividing the relative tumor growth of the treated group by the relative tumor growth of the placebo group and multiplying by 100. A compound is considered to be active if the %T/C is found to be […].
# [2] = test system: MDA435; assay: Inhibition of cancer cell growth as measured by cell number (Sulforhodamine B); assay type: cell-based; details: Homo sapiens, 48 hours exposure
# Description: (§1) Human tumor cell lines were plated in 96-well plates (250 µl/well, 1-6 x 10^4 cells/ml) in RPMI 1640 medium, containing 5% FBS (Fetal Bovine Serum). […] After 48 hours exposure to test compounds, cells were fixed with trichloroacetic acid, and stained with Sulforhodamine B. After washing with trichloroacetic acid, bound dye was solubilized in 10 mM Tris base and optical density was determined using a plate reader. Under conditions of the assay the optical density is proportional to the number of cells in the well. IC50s (concentrations causing 50% inhibition of cell growth) were determined from the growth inhibition plots. The test procedure is described in details by Philip Skehan et. al, J.Natl. Canc. Inst., 82, 1107-1112 (1990). […] Information about some of the cell lines used in these test procedures is available from the American Type Tissue Collection: Cell Lines and Hybridomas, 1994 Reference Guide, 8th Edition. The Her2Neu cell line is a 3T3 line that has been transfected with Her2 receptor kinase.
# [3] = test system: SW620; assay: as above; assay type: cell-based; details: Homo sapiens, SW-620; 48 hours exposure
# Description: as §1
# [4] = test system: 3T3; assay: as above; assay type: cell-based; details: Mus musculus, NIH3T3; 48 hours exposure
# Description: as §1
# [5] = test system: A431; assay: as above; assay type: cell-based; details: Homo sapiens, A-431; 48 hours exposure
# Description: as §1
# [6] = test system: Her2Neu; assay: as above; assay type: cell-based; details: 48 hours exposure; 3T3 line transfected with Her2 receptor kinase
# Description: as §1
# [7] = molecular target: T1, Epidermal Growth Factor Receptor Kinase (EGF-R) (Homo sapiens, UniProt P00533); assay: Inhibition of Epidermal Growth Factor Receptor Kinase (EGF-R) using recombinant enzyme; assay type: biochemical; details: for inhibition at 0.5 µM: 0.5 µM concentration of test compound; for IC50: recombinant enzyme
# T1 construct: containing the EGFR cDNA encoding amino acids 645 - 1186 preceded by Met-Ala-(His)6; Met-Ala-(His)6 (N); made in house; host or cells: Sf9 insect cells (baculovirus vHcEGFR52)
# Description: Representative test compounds were evaluated for their ability to inhibit the phosphorylation of the tyrosine residue of a peptide substrate catalyzed by the enzyme epidermal growth factor receptor kinase. The peptide substrate (RR-SRC) has the sequence arg-arg-leu-ile-glu-asp-ala-glu-tyr-ala-ala-arg-gly. The enzyme used in this assay is the His-tagged cytoplasmic domain of EGFR. A recombinant baculovirus (vHcEGFR52) was constructed containing the EGFR cDNA encoding amino acids 645 - 1186 preceded by Met-Ala-(His)6. Sf9 cells in 100 mm plates were infected at an moi of 10 pfu/cell and cells were harvested 48 hours post infection. A cytoplasmic extract was prepared using 1% Triton X-100 and applied to Ni-NTA column. After washing the column with 20 mM imidazole, HcEGFR was eluted with 250 mM imidazole (in 50 mM Na2HPO4, pH 8.0, 300 mM NaCl). Fractions collected were dialyzed against 10 mM HEPES, pH 7.0, 50 mM NaCl, 10% glycerol, 1µg/mL antipain and leupeptin and 0.1 mM Pefabloc SC. The protein was frozen in dry ice/methanol and stored -70° C.
# Test compounds were made into 10 mg/mL stock solutions in 100% dimethylsulfoxide (DMSO). Prior to experiment, stock solutions were diluted to 500 µM with 100% DMSO and then serially diluted to the desired concentration with HEPES buffer (30 mM HEPES pH 7.4).
# For the enzyme reaction, 10 µL of each inhibitor (at various concentrations) were added to each well of a 96-well plate. To this was added 3 µL of enzyme (1:10 dilution in 10mM HEPES, pH 7.4 for final conc. of 1:120). This was allowed to sit for 10 minutes on ice and was followed by the addition of 5 µl peptide (80 uM final conc.), 10µl of 4X Buffer (Table A), 0.25 µL ^33P-ATP and 12 µL H2O. The reaction was allowed to run for 90 minutes at room temperature and was followed by spotting the entire volume on to precut P81 filter papers. The filter discs were washed 2X with 0.5% phosphoric acid and radioactivity was measured using a liquid scintillation counter. Table A
# The inhibition data for representative compounds of the invention are shown below in TABLE 1. The IC50 is the concentration of test compound needed to reduce the total amount of phosphorylated substrate by 50%. The % inhibition of the test compound was determined for at least three different concentrations and the IC50 value was evaluated from the dose response curve. […] CPM(control) is in units of counts per minute and was a number expressing the amount of radiolabeled ATP (γ-^33P) incorporated into the RR-SRC peptide substrate by the enzyme after 90 minutes at room temperature in the absence of test compound as measured by liquid scintillation counting. The CPM values were corrected for the background counts produced by ATP in the absence of the enzymatic reaction. Where it was possible to determine an IC50 value, this is reported in TABLE 1 otherwise the % inhibition at 0.5 µM concentration of test compound is shown in TABLE 1.
# [8] = test system: SKBR3; assay: Inhibition of cancer cell growth as measured by cell number (Sulforhodamine B); assay type: cell-based; details: Homo sapiens, SK-BR-3; 48 hours exposure
# Description: as §1
# [9] = molecular target: T2, c-Met (Homo sapiens, UniProt P08581); assay: DELFIA assay for c-Met receptor kinase inhibitors; assay type: biochemical
# T2 construct: The cytoplasmic domain of c-Met was generated by reverse transcriptase-polymerase chain reaction; His tag (from pFastBac-HTc vector; purified on Ni-NTA/Talon); made in house; host or cells: Sf9 insect cells (baculovirus)
# Description: The c-Met kinase assay was performed as a DELFIA (dissociation enchanced lanthanide fluorometric immunoassay), an ELISA-like protocol based upon time-resolved fluorometry as described previously [Braunwalder, A. F., Yarwood, D.R., Sills, M.A., and Lipson, K.E., Anal. Biochem. 238, 159-164 (1996)]. The protocol was adopted for the screening of inhibitors of the kinase activity of recombinant c-Met. [Loganzo, F., and. Hardy, C., American Biotechnology Laboratory 16(13), 26-28 (1998)]. The cytoplasmic domain of c-Met was generated by reverse transcriptase-polymerase chain reaction using RNA isolated from human mammary epithelial cells as template, cloned into the pFastBac-HTc vector (Life Technologies) and protein expressed in Sf9 insect cells by baculovirus infection. Protein was purified by imidazole elution from Ni-NTA resin (Invitrogen, Carlsbad, CA) or Talon resin (Clontech, Palo Alto, CA). Various conditions were evaluated for the kinase screening protocol and screening was accomplished with the following method. Polystyrene Maxisorp plates (Nunc) were pre-coated for 1 hour to overnight at room temperature with 5 µg/ml poly(Glu4-Tyr) diluted in Tris-buffered saline (TBS). Plates were washed 3X with TBS. c-Met protein preparation was diluted 1:80 into 0.1% BSA/ 4 mM HEPES. A master mix was prepared consisting of: 1 volume of diluted c-Met, 1 volume of 5X buffer (20 mM HEPES, pH 7.4; 2 mM MnCl2; 100 µM Na3VO4; 1 mM DTT), 0.9 volume of water. Master mix (29 µl) was added to the wells of peptide-coated microtiter plates. For assays where c-Met autophosphorylation was evaluated, plates were uncoated and c-Met was diluted into 4 mM HEPES at 1:40 without BSA. Compounds (1 µl) at various dilutions (1 mM to 0.1 µM) prepared in DMSO were added and mixed well with an automatic piptettor. After incubation 20 minutes at room temperature, the reaction was initiated with 20 µl of 62.5 µM ATP/ 50 mM MgCl2 (final 25 µM ATP/ 20 mM MgCl2 in assay). Reactions were incubated 45 minutes at room temperature. Plates were then washed 3X with 100 µl each of DELFIA wash buffer (Wallac). Antibody binding was performed by adding 75 µl of Europium-conjugated anti-phosphotyrosine diluted 1:2000 in Assay Buffer (Wallac) for 1 hour at room temperature. Plates were washed 3X with DELFIA wash buffer. Detection was done by addition of 100 µl of Enhancement Solution (Wallac). After 30 minutes, plates were read in a Wallac VICTOR-2 time-resolved fluorometer. Inhibition data was reported as europium counts for compound treated wells normalized to control counts. IC50 values were obtained by using log doses of compound and calculated using Data Analysis Toolbox software, version 1.0.2 (MDL Information Systems, Inc.).
# T2 sequence (P08581 956-1390 limits assumed): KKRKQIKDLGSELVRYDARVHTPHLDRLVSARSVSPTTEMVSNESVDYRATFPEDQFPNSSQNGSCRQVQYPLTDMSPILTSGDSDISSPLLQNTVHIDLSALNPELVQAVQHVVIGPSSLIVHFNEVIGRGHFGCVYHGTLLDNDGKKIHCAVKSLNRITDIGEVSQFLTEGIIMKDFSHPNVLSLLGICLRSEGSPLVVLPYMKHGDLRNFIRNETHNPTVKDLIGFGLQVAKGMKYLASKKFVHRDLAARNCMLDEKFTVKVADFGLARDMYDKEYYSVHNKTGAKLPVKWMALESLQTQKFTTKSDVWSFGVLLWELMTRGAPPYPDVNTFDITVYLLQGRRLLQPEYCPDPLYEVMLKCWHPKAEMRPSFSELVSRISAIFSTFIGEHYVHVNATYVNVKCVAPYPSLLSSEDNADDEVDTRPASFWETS
# T1 sequence (P00533 669-1210): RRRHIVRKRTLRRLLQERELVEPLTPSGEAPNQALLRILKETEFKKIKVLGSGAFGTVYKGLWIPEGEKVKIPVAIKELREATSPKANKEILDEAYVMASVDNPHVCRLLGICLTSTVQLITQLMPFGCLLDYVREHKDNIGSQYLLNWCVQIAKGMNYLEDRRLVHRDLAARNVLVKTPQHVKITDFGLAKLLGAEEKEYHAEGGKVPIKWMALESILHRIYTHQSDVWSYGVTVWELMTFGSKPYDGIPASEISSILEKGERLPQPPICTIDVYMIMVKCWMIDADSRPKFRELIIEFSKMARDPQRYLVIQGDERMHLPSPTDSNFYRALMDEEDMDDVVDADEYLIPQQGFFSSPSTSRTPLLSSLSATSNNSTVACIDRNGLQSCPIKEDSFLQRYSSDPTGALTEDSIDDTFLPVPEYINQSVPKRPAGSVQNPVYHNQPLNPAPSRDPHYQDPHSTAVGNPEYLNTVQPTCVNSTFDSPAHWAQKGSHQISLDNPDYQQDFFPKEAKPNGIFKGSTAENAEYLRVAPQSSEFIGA
structure (smiles),measurement,setting,value
"CN(C)C/C=C/C(=O)N1CCOc2cc3ncc(C#N)c(Nc4ccc(F)c(Cl)c4)c3cc21 [Example 9, 9-(3-Chloro-4-fluoroanilino)-1-[(2E)-4-(dimethylamino)-2-butenoyl]-2,3-dihydro-1H-[1,4]oxazino[3,2-g]quinoline-8-carbonitrile]",%T/C,"[1]; 1 mg/kg/dose PO, Day 7",103%
same,RTG Day 7,"[1]; 1 mg/kg/dose PO, Day 7",4.66
same,%T/C,"[1]; 1 mg/kg/dose PO, Day 14",73%
same,RTG Day 14,"[1]; 1 mg/kg/dose PO, Day 14",8.11
same,%T/C,"[1]; 1 mg/kg/dose PO, Day 21",76%
same,RTG Day 21,"[1]; 1 mg/kg/dose PO, Day 21",13.23
same,S/T,[1]; 1 mg/kg/dose PO,5/5
same,%T/C,"[1]; 3 mg/kg/dose PO, Day 7",104%
same,RTG Day 7,"[1]; 3 mg/kg/dose PO, Day 7",4.76
same,%T/C,"[1]; 3 mg/kg/dose PO, Day 14",107%
same,RTG Day 14,"[1]; 3 mg/kg/dose PO, Day 14",11.79
same,%T/C,"[1]; 3 mg/kg/dose PO, Day 21",137%
same,RTG Day 21,"[1]; 3 mg/kg/dose PO, Day 21",23.77
same,S/T,[1]; 3 mg/kg/dose PO,5/5
same,%T/C,"[1]; 10 mg/kg/dose PO, Day 7",105%
same,RTG Day 7,"[1]; 10 mg/kg/dose PO, Day 7",4.81
same,%T/C,"[1]; 10 mg/kg/dose PO, Day 14",87%
same,RTG Day 14,"[1]; 10 mg/kg/dose PO, Day 14",9.66
same,%T/C,"[1]; 10 mg/kg/dose PO, Day 21",64%
same,RTG Day 21,"[1]; 10 mg/kg/dose PO, Day 21",11.49
same,S/T,[1]; 10 mg/kg/dose PO,5/5
same,%T/C,"[1]; 20 mg/kg/dose PO, Day 7",118%
same,RTG Day 7,"[1]; 20 mg/kg/dose PO, Day 7",5.40
same,%T/C,"[1]; 20 mg/kg/dose PO, Day 14",96%
same,RTG Day 14,"[1]; 20 mg/kg/dose PO, Day 14",10.56
same,%T/C,"[1]; 20 mg/kg/dose PO, Day 21",84%
same,RTG Day 21,"[1]; 20 mg/kg/dose PO, Day 21",14.56
same,S/T,[1]; 20 mg/kg/dose PO,5/5
same,%T/C,"[1]; 40 mg/kg/dose PO, Day 7",75%
same,RTG Day 7,"[1]; 40 mg/kg/dose PO, Day 7",3.40
same,%T/C,"[1]; 40 mg/kg/dose PO, Day 14",53%
same,RTG Day 14,"[1]; 40 mg/kg/dose PO, Day 14",5.93
same,%T/C,"[1]; 40 mg/kg/dose PO, Day 21",41%
same,RTG Day 21,"[1]; 40 mg/kg/dose PO, Day 21",7.15
same,S/T,[1]; 40 mg/kg/dose PO,5/5
same,inhibition of tumor growth in vivo,[1]; summary statement in words,effective inhibitor of tumor growth in vivo
same,IC50,[2],0.24 µg/mL
same,IC50,[3],0.165 µg/mL
same,IC50,[4],0.169 µg/mL
same,IC50,[5],0.108 µg/mL
same,IC50,[6],0.15 µg/mL
same,inhibition at 0.5 µM,[7],56.5%
same,IC50,[7],170 nM
"N#Cc1cnc2cc3c(cc2c1Nc1ccc(F)c(Cl)c1)N(CCCCCl)CCO3 [Example 11, 1-(4-Chlorobutyl)-9-(3-chloro-4-fluoroanilino)-2,3-dihydro-1H-[1,4]oxazino[3,2-g]quinoline-8-carbonitrile]",IC50,[2],> 5 µg/mL
same,IC50,[3],> 5 µg/mL
same,IC50,[4],3.89 µg/mL
same,IC50,[5],1.9 µg/mL
same,IC50,[6],> 5 µg/mL
same,IC50,[8],2.53 µg/mL
same,inhibition at 10 µg/mL,[9],42%
same,inhibition at 0.5 µM,[7],73%
same,IC50,[7],1 nM
CN(C)CCCC(=O)N1CCOc2cc3ncc(C#N)c(Nc4ccc(F)c(Cl)c4)c3cc21 [Example 10],IC50,[2],2.72 µg/mL
same,IC50,[3],1.89 µg/mL
same,IC50,[4],1.99 µg/mL
same,IC50,[5],1.01 µg/mL
same,IC50,[6],> 5 µg/mL
same,IC50,[8],1.07 µg/mL
same,inhibition at 10 µg/mL,[9],50%
same,inhibition at 0.5 µM,[7],57.8%
"CN(C)CCCCN1CCOc2cc3ncc(C#N)c(Nc4ccc(F)c(Cl)c4)c3cc21 [Example 12, 9-(3-Chloro-4-fluoroanilino)-1-[4-(dimethylamino)butyl]-2,3-dihydro-1H-[1,4]oxazino[3,2-g]quinoline-8-carbonitrile]",IC50,[2],2.36 µg/mL
same,IC50,[3],1.5 µg/mL
same,IC50,[4],1.49 µg/mL
same,IC50,[5],0.47 µg/mL
same,IC50,[6],> 5 µg/mL
same,IC50,[8],0.649 µg/mL
same,inhibition at 10 µg/mL,[9],66%
same,inhibition at 0.5 µM,[7],53.5%
